Laboratory results as given in PubChem BioAssay AID330 (DTP/NCI, 2004).
Values joined by “and” are separate entries in the source; they are usually repeats but may differ in a detail not shown here. Identical values can stand only once. Toxic doses and inconclusive results are not listed. How the source made its calls: active means survival T/C of 150% or more; inactive means T/C below 125% in these data.

Tested on: P388 leukemia ip, CD2F1 mice, survival T/C
Assay: NCI In Vivo Anticancer Drug Screen. Data for tumor model P388 Leukemia (intraperitoneal) in CD2F1 (CDF1) mice
Conditions: endpoint: median survival time, higher = longer survival
Method in brief: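 Mice carrying the transplanted tumor received test compound or vehicle. Survival was recorded in each group, and the value is the treated-group measurement divided by that of the vehicle-treated control group.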

[1] = dose: 50.0 mg/kg/injection, schedule: Q01DX005 (ip), vehicle: saline with Tween-80
[2] = dose: 100.0 mg/kg/injection, schedule: Q01DX005 (ip), vehicle: saline with Tween-80
[3] = dose: 200.0 mg/kg/injection, schedule: Q01DX005 (ip), vehicle: saline with Tween-80
[4] = dose: 50.0 mg/kg/injection, schedule: Q01DX009 (ip), vehicle: saline with Tween-80
[5] = dose: 100.0 mg/kg/injection, schedule: Q01DX009 (ip), vehicle: saline with Tween-80
[6] = dose: 200.0 mg/kg/injection, schedule: Q01DX009 (ip), vehicle: saline with Tween-80
[7] = dose: 25.0 mg/kg/injection, schedule: Q01DX009 (ip), vehicle: saline with Tween-80
[8] = dose: 6.25 mg/kg/injection, schedule: Q01DX009 (ip), vehicle: saline
[9] = dose: 12.5 mg/kg/injection, schedule: Q01DX009 (ip), vehicle: saline
[10] = dose: 25.0 mg/kg/injection, schedule: Q01DX009 (ip), vehicle: saline
[11] = dose: 50.0 mg/kg/injection, schedule: Q01DX005 (ip), vehicle: Klucel (hydroxypropylcellulose) (HPC)
[12] = dose: 100.0 mg/kg/injection, schedule: Q01DX005 (ip), vehicle: Klucel (hydroxypropylcellulose) (HPC)
[13] = dose: 50.0 mg/kg/injection, schedule: Q01DX009 (ip), vehicle: Klucel (hydroxypropylcellulose) (HPC)
[14] = dose: 100.0 mg/kg/injection, schedule: Q01DX009 (ip), vehicle: Klucel (hydroxypropylcellulose) (HPC)
[15] = dose: 200.0 mg/kg/injection, schedule: Q01DX009 (ip), vehicle: Klucel (hydroxypropylcellulose) (HPC)
[16] = dose: 60.0 mg/kg/injection, schedule: Q01DX005 (ip), vehicle: saline with Tween-80
[17] = dose: 100.0 mg/kg/injection, schedule: Q04DX003 (ip), vehicle: saline
[18] = dose: 200.0 mg/kg/injection, schedule: Q04DX003 (ip), vehicle: saline
[19] = dose: 100.0 mg/kg/injection, schedule: Q01DX009 (ip), vehicle: saline
[20] = dose: 120.0 mg/kg/injection, schedule: Q01DX005 (ip), vehicle: saline with Tween-80

Measured: T/C

CC(NNC(=S)N1CCN(c2ccccn2)CC1)c1cccc[n+]1[O-] (configuration not stated)
inactive: [1] 103 % of control | [2] 100 % of control | [3] 91 % of control

Oc1ccccc1C=Nc1ccccc1C(F)(F)F
inactive: [4] 101 % of control | [5] 103 % of control | [6] 95 % of control | dose: 400.0 mg/kg/injection, schedule: Q01DX009 (ip), vehicle: saline with Tween-80 97 % of control

N#Cc1ccc(CC(CC(=O)c2ccccc2)c2ccccc2)cc1 (configuration not stated)
inactive: [7] 91 % of control | [4] 89 % of control | [5] 89 % of control | [6] 89 % of control

[Cu+2].[NH-]C(Cc1cnc[nH]1)C(=O)O.[NH-]CC(=O)O (configuration not stated)
inactive: [8] 97 % of control | [9] 93 % of control and 95 % of control | [10] 97 % of control

OC1CN(c2ccccc2)CC1O (configuration not stated)
inactive: [11] 105 % of control | [12] 96 % of control | dose: 200.0 mg/kg/injection, schedule: Q01DX005 (ip), vehicle: Klucel (hydroxypropylcellulose) (HPC) 97 % of control

COc1ccc(NC(=S)Nc2ccc(S(=O)(=O)N3CCCCC3)cc2)cc1
inactive: [13] 94 % of control | [14] 94 % of control and 95 % of control | [15] 98 % of control

CCCCNC(=O)OCCN(C)CCOC(=O)NCCCC
inactive: dose: 60.0 mg/kg/injection, schedule: Q01DX005 (ip), vehicle: saline 107 % of control | dose: 120.0 mg/kg/injection, schedule: Q01DX005 (ip), vehicle: saline 101 % of control

CC(C=O)[Se]c1ccccc1 (configuration not stated)
inactive: [16] 100 % of control

C1=Nc2ccccc2OCCOc2ccccc2N=Cc2ccccc2NCCNc2ccccc21
inactive: [17] 97 % of control | [18] 100 % of control

CCC(=O)NC(Cc1cccs1)C(=O)O (configuration not stated)
inactive: [8] 107 % of control | [9] 105 % of control | [10] 93 % of control | [19] 88 % of control | dose: 200.0 mg/kg/injection, schedule: Q01DX009 (ip), vehicle: saline 91 % of control

C=C1C(=O)OC2CCCC(O)C12 (configuration not stated)
inactive: dose: 50.0 mg/kg/injection, schedule: Q04DX003 (ip), vehicle: Klucel (hydroxypropylcellulose) (HPC) 106 % of control and 96 % of control | dose: 100.0 mg/kg/injection, schedule: Q04DX003 (ip), vehicle: Klucel (hydroxypropylcellulose) (HPC) 104 % of control | dose: 200.0 mg/kg/injection, schedule: Q04DX003 (ip), vehicle: Klucel (hydroxypropylcellulose) (HPC) 115 % of control

Cc1ccccc1/C(=C/c1ccc([N+](=O)[O-])cc1)C(=O)O
inactive: dose: 60.0 mg/kg/injection, schedule: Q01DX005 (ip), vehicle: Klucel (hydroxypropylcellulose) (HPC) 108 % of control | dose: 120.0 mg/kg/injection, schedule: Q01DX005 (ip), vehicle: Klucel (hydroxypropylcellulose) (HPC) 108 % of control | dose: 240.0 mg/kg/injection, schedule: Q01DX005 (ip), vehicle: Klucel (hydroxypropylcellulose) (HPC) 112 % of control

C=C[C@@](C)(O)CC/C=C(/C)CCC=C(C)C
inactive: [7] 110 % of control | [4] 110 % of control | [5] 110 % of control | [17] 109 % of control | [18] 100 % of control | dose: 400.0 mg/kg/injection, schedule: Q04DX003 (ip), vehicle: saline 113 % of control

O=[N+]([O-])c1ccccc1N/N=C\c1cccc2c(/C=N/Nc3ccccc3[N+](=O)[O-])c(Cl)n(-c3ccccc3)c12
inactive: dose: 200.0 mg/kg/injection, schedule: Q01DX001 (ip), vehicle: Klucel (hydroxypropylcellulose) (HPC) 88 % of control

C#CCn1cnc2c(N)ncnc21
inactive: [11] 97 % of control | [12] 93 % of control

CCSC(=S)N=Nc1c(O)n(C)c2ccccc12
inactive: dose: 50.0 mg/kg/injection, schedule: Q01DX009 (ip), vehicle: saline 93 % of control | [19] 94 % of control

COC1(OC)C2CCC1C(Cl)=C2Cl
inactive: dose: 3.13 mg/kg/injection, schedule: Q01DX009 (ip), vehicle: saline with Tween-80 93 % of control | dose: 3.13 mg/kg/injection, schedule: Q01DX009 (ip), vehicle: saline 108 % of control | dose: 6.25 mg/kg/injection, schedule: Q01DX009 (ip), vehicle: saline with Tween-80 108 % of control | [8] 107 % of control | [9] 124 % of control

O=C(Cc1n[nH]c(=S)nc1CC(=O)c1cccnc1)c1cccnc1
inactive: [16] 100 % of control | [20] 96 % of control

OCC1OC(O)C(N=C/C=C/c2ccccc2)C(O)C1O (configuration not stated)
inactive: [1] 104 % of control | [2] 117 % of control | [3] 115 % of control

CSC(=N\N=C\c1c(F)cccc1Cl)/N=C/N(C)C
inactive: [16] 95 % of control | [20] 101 % of control | dose: 240.0 mg/kg/injection, schedule: Q01DX005 (ip), vehicle: saline with Tween-80 103 % of control

CC(C)N1CSC(=S)N(Cc2ccccc2)C1
inactive: [7] 107 % of control | [4] 97 % of control and 98 % of control | [5] 93 % of control and 98 % of control | [6] 89 % of control

COc1cccc(/C=C/C(=O)C(CN(C)C)CN(C)C)c1
inactive: dose: 6.25 mg/kg/injection, schedule: Q01DX005 (ip), vehicle: saline 100 % of control | dose: 12.5 mg/kg/injection, schedule: Q01DX005 (ip), vehicle: saline 106 % of control

CC(=O)Nc1ccc(N=NN(C)Cc2ccccc2)cc1
inactive: dose: 25.0 mg/kg/injection, schedule: Q01DX001 (ip), vehicle: Klucel (hydroxypropylcellulose) (HPC) 102 % of control | dose: 50.0 mg/kg/injection, schedule: Q01DX001 (ip), vehicle: Klucel (hydroxypropylcellulose) (HPC) 92 % of control

C[C@]12C=CC(=O)C=C1CC[C@@H]1[C@@H]2CC[C@@]2(C)[C@H]1CC[C@]2(C)O
inactive: [1] 97 % of control | [2] 95 % of control | [14] 110 % of control | [15] 90 % of control

C1=NCc2ccsc2-n2cccc21
inactive: dose: 25.0 mg/kg/injection, schedule: Q01DX005 (ip), vehicle: Klucel (hydroxypropylcellulose) (HPC) 100 % of control | [11] 105 % of control

O=C(O)c1cc(=O)c2cc3c(=O)cc(C(=O)O)[nH]c3c(Cl)c2[nH]1
inactive: [7] 96 % of control | [4] 96 % of control | [5] 100 % of control

Clc1nn2cnnc2c2ncccc12
inactive: dose: 12.5 mg/kg/injection, schedule: Q01DX009 (ip), vehicle: Klucel (hydroxypropylcellulose) (HPC) 91 % of control | dose: 25.0 mg/kg/injection, schedule: Q01DX009 (ip), vehicle: Klucel (hydroxypropylcellulose) (HPC) 96 % of control | [13] 92 % of control and 97 % of control

Cc1[nH]c(=O)[nH]c(=O)c1C=O
inactive: [4] 103 % of control | [5] 106 % of control | [6] 99 % of control

CC(C)C12OC1C1OC13C1(C)CCC4=C(COC4=O)C1CC1OC13C2=O (configuration not stated)
inactive: dose: 2.5 mg/kg/injection, schedule: Q01DX005 (ip), vehicle: saline + alcohol 110 % of control | dose: 5.0 mg/kg/injection, schedule: Q01DX005 (ip), vehicle: saline + alcohol 100 % of control | dose: 20.0 mg/kg/injection, schedule: Q01DX005 (ip), vehicle: saline + alcohol 114 % of control

COc1c2c(cc3c1OCO3)[C@]13C=C[C@H](OC)C[C@H]1N(C2)CC3O (some centres not stated)
inactive: dose: 0.63 mg/kg/injection, schedule: Q01DX009 (ip), vehicle: saline with Tween-80 90 % of control | dose: 1.25 mg/kg/injection, schedule: Q01DX001 (ip), vehicle: saline 100 % of control | dose: 1.25 mg/kg/injection, schedule: Q01DX009 (ip), vehicle: saline with Tween-80 86 % of control | dose: 2.5 mg/kg/injection, schedule: Q01DX001 (ip), vehicle: saline 109 % of control | dose: 5.0 mg/kg/injection, schedule: Q01DX001 (ip), vehicle: saline with Tween-80 90 % of control

C#CCN1c2c(nc(N)[nH]c2=O)NCC1CNc1ccc(C(=O)NC(CCC(=O)O)C(=O)O)cc1 (configuration not stated)
inactive: dose: 50.0 mg/kg/injection, schedule: Q01DX005 (ip), vehicle: alkali diluted with saline 105 % of control | dose: 100.0 mg/kg/injection, schedule: Q01DX005 (ip), vehicle: alkali diluted with saline 92 % of control | dose: 200.0 mg/kg/injection, schedule: Q01DX005 (ip), vehicle: alkali diluted with saline 105 % of control

c1ccc(NN=Nc2ncnc3nc[nH]c23)cc1
inactive: dose: 12.5 mg/kg/injection, schedule: Q01DX005 (ip), vehicle: saline with Tween-80 106 % of control | dose: 25.0 mg/kg/injection, schedule: Q01DX005 (ip), vehicle: saline with Tween-80 111 % of control | [1] 102 % of control and 115 % of control
